Measurements: US20240368113A1, “AMIDE COMPOUND AND USE THEREOF” (Chengdu Fendi Pharmaceutical Co. Ltd., priority 2021, published 2024)
Read-outs that look alike come from different tables or passages of the source.

System: MV-4-11 cells
Assay: Inhibition of tumor cell proliferation (CellTiter-Glo)
Type: cell-based
Settings: Homo sapiens, read-out: IC50 of inhibitory activity of tumor cell proliferation
Experimental: MV-4-11 cells were diluted with medium (RPM1640+10% FBS+1% PS) and plated at 4000 cells/well in a white-walled clear-bottom 96-well plate. MV-4-11 cells were plated and incubated in a 5% CO2, 37° C. incubator for 2 hours. Cells were treated with the indicated concentration of compound or DMSO (control), and placed in a 5% CO2, 37° C. incubator for 72 h after dosing. After the end of the culture, equilibrate at room temperature for 30 min, add 100 μl of CellTiter-Glo® Reagent to each well, and shake the microplate shaker for 2 min. After 10 min of incubation at room temperature, the luminescence was measured by a microplate reader, and the cell-free wells were used as the background wells. CC-90009 (celegen patent phase I) was used as a control, and its structural formula was as follows: 0

[1] = MV4-11, MV-4-11 cells, 72 h, CellTiter-Glo

Row | SMILES | IC50 [1] | IC50 (MV4-11, 72 h)
1 | O=C(C#Cc1ccc(CC(F)F)cc1)NCc1ccc2c(c1)CN(C1CCC(=O)NC1=O)C2=O (stereo not drawn) [Compound 2] | < 1 nM | 
2 | O=C(C#Cc1ccc(F)cc1)NCc1ccc2c(c1)CN(C1CCC(=O)NC1=O)C2=O (stereo not drawn) [Compound 3] | < 1 nM | 
3 | O=C(C#Cc1c(F)cccc1F)NCc1ccc2c(c1)CN(C1CCC(=O)NC1=O)C2=O (stereo not drawn) [Compound 9] | < 1 nM | 
4 | O=C(C#Cc1ccccc1)NCc1ccc2c(c1)CN(C1CCC(=O)NC1=O)C2=O (stereo not drawn) [Compound 11] | < 1 nM | 
5 | Cc1cc(F)c(C#CC(=O)NCc2ccc3c(c2)CN(C2CCC(=O)NC2=O)C3=O)c(F)c1 (stereo not drawn) [Compound 13] | < 1 nM | 
6 | O=C1CCC(N2Cc3cc(CNC(=O)/C(F)=C/c4cccc(F)c4)ccc3C2=O)C(=O)N1 (stereo not drawn) [Compound 14] | > 100 nM | 
7 | O=C(/C=C/c1ccccc1)NCc1ccc2c(c1)CN(C1CCC(=O)NC1=O)C2=O (stereo not drawn) [Compound 15] | 1 to 10 nM | 
8 | O=C(C#Cc1cccc(Br)c1)NCc1ccc2c(c1)CN(C1CCC(=O)NC1=O)C2=O (stereo not drawn) [Compound 18] | < 1 nM | 
9 | O=C(C#Cc1cccc(O)c1)NCc1ccc2c(c1)CN(C1CCC(=O)NC1=O)C2=O (stereo not drawn) [Compound 19] | 1 to 10 nM | 
10 | C[Si](C)(C)C#CC(=O)NCc1ccc2c(c1)CN(C1CCC(=O)NC1=O)C2=O (stereo not drawn) [Compound 20] | > 100 nM | 
11 | CC(C)(C)[Si](C)(C)OCC#CC(=O)NCc1ccc2c(c1)CN(C1CCC(=O)NC1=O)C2=O (stereo not drawn) [Compound 21] | < 1 nM | 
12 | O=C(C#CCO)NCc1ccc2c(c1)CN(C1CCC(=O)NC1=O)C2=O (stereo not drawn) [Compound 22] | > 100 nM | 
13 | O=C(C#Cc1ccc2c(c1)OCO2)NCc1ccc2c(c1)CN(C1CCC(=O)NC1=O)C2=O (stereo not drawn) [Compound 24] | < 1 nM | 
14 | CC(C)(C)OC(=O)c1ccc(C#CC(=O)NCc2ccc3c(c2)CN(C2CCC(=O)NC2=O)C3=O)cc1 (stereo not drawn) [Compound 25] | < 1 nM | 
15 | O=C(C#Cc1ccc(C(=O)O)cc1)NCc1ccc2c(c1)CN(C1CCC(=O)NC1=O)C2=O (stereo not drawn) [Compound 26] | > 100 nM | 
16 | CC(=O)Oc1ccc(C#CC(=O)NCc2ccc3c(c2)CN(C2CCC(=O)NC2=O)C3=O)cc1 (stereo not drawn) [Compound 32] | 1 to 10 nM | 
17 | O=C(C#Cc1ccc(F)nc1F)NCc1ccc2c(c1)CN(C1CCC(=O)NC1=O)C2=O (stereo not drawn) [Compound 41] | 1 to 10 nM | 
18 | Cn1nccc1C#CC(=O)NCc1ccc2c(c1)CN(C1CCC(=O)NC1=O)C2=O (stereo not drawn) [Compound 44] | > 100 nM | 
19 | O=C(C#Cc1ccc2nccn2c1)NCc1ccc2c(c1)CN(C1CCC(=O)NC1=O)C2=O (stereo not drawn) [Compound 45] | > 100 nM | 
20 | COc1cccc(C#CC(=O)NCc2ccc3c(c2)CN(C2CCC(=O)NC2=O)C3=O)c1 (stereo not drawn) [Compound 46] | < 1 nM | 
21 | O=C(C#Cc1ccc([N+](=O)[O-])cc1F)NCc1ccc2c(c1)CN(C1CCC(=O)NC1=O)C2=O (stereo not drawn) [Compound 47] | > 100 nM | 
22 | O=C(C#Cc1ccc(F)cc1[N+](=O)[O-])NCc1ccc2c(c1)CN(C1CCC(=O)NC1=O)C2=O (stereo not drawn) [Compound 49] | 1 to 10 nM | 

Row | SMILES | IC50 [1] | IC50 (MV4-11, 72 h)
23 | Nc1cc(F)ccc1C#CC(=O)NCc1ccc2c(c1)CN(C1CCC(=O)NC1=O)C2=O (stereo not drawn) [Compound 50] | 1 to 10 nM | 
24 | Cc1ccc(C#CC(=O)NCc2ccc3c(c2)CN(C2CCC(=O)NC2=O)C3=O)cc1[N+](=O)[O-] (stereo not drawn) [Compound 51] | < 1 nM | 
25 | Cc1ccc(C#CC(=O)NCc2ccc3c(c2)CN(C2CCC(=O)NC2=O)C3=O)cc1N (stereo not drawn) [Compound 52] | < 1 nM | 
26 | O=C(C#Cc1ccc(F)c([N+](=O)[O-])c1)NCc1ccc2c(c1)CN(C1CCC(=O)NC1=O)C2=O (stereo not drawn) [Compound 53] | 10 to 100 nM | 
27 | O=C(C#Cc1ccc(-c2ccc([N+](=O)[O-])cc2)cc1)NCc1ccc2c(c1)CN(C1CCC(=O)NC1=O)C2=O (stereo not drawn) [Compound 55] | < 1 nM | 
28 | Nc1ccc(-c2ccc(C#CC(=O)NCc3ccc4c(c3)CN(C3CCC(=O)NC3=O)C4=O)cc2)cc1 (stereo not drawn) [Compound 56] | < 1 nM | 
29 | O=C(C#Cc1ccc(O)cc1)NCc1ccc2c(c1)CN(C1CCC(=O)NC1=O)C2=O (stereo not drawn) [Compound 57] | 10 to 100 nM | 
30 | O=C(C#Cc1ccccc1O)NCc1ccc2c(c1)CN(C1CCC(=O)NC1=O)C2=O (stereo not drawn) [Compound 58] | 1 to 10 nM | 
31 | O=C(C#Cc1ccc(C(F)(F)F)nc1)NCc1ccc2c(c1)CN(C1CCC(=O)NC1=O)C2=O (stereo not drawn) [Compound 60] | 10 to 100 nM | 
32 | O=C(C#CC1CC1)NCc1ccc2c(c1)CN(C1CCC(=O)NC1=O)C2=O (stereo not drawn) [Compound 61] | > 100 nM | 
33 | O=C(C#CC1CCCCC1)NCc1ccc2c(c1)CN(C1CCC(=O)NC1=O)C2=O (stereo not drawn) [Compound 62] | < 1 nM | 
34 | CC(C)(C)OC(=O)N1CCCCC1C#CC(=O)NCc1ccc2c(c1)CN(C1CCC(=O)NC1=O)C2=O (stereo not drawn) [Compound 63] | < 1 nM | 
35 | O=C(C#CC1CCCCN1)NCc1ccc2c(c1)CN(C1CCC(=O)NC1=O)C2=O (stereo not drawn) [Compound 64] | > 100 nM | 
36 | CC(C)(C)OC(=O)c1ccccc1C#CC(=O)NCc1ccc2c(c1)CN(C1CCC(=O)NC1=O)C2=O (stereo not drawn) [Compound 69] | < 1 nM | 
37 | CC(C)(C)OC(=O)c1cccc(C#CC(=O)NCc2ccc3c(c2)CN(C2CCC(=O)NC2=O)C3=O)c1 (stereo not drawn) [Compound 70] | < 1 nM | 
38 | O=C(C#Cc1ccc(OC(=O)N2CCC(N3CCCCC3)CC2)cc1)NCc1ccc2c(c1)CN(C1CCC(=O)NC1=O)C2=O (stereo not drawn) [Compound 72] |  | > 100 nM
39 | CC(C)C(=O)Oc1ccccc1C#CC(=O)NCc1ccc2c(c1)CN(C1CCC(=O)NC1=O)C2=O (stereo not drawn) [Compound 73] | 1 to 10 nM | 
40 | O=C(C#Cc1ccccc1OC(=O)N1CCC(N2CCCCC2)CC1)NCc1ccc2c(c1)CN(C1CCC(=O)NC1=O)C2=O (stereo not drawn) [Compound 74] |  | > 100 nM
41 | O=C(C#Cc1ccccc1C(=O)O)NCc1ccc2c(c1)CN(C1CCC(=O)NC1=O)C2=O (stereo not drawn) [Compound 75] | > 100 nM | 
42 | O=C(C#Cc1cccc(C(=O)O)c1)NCc1ccc2c(c1)CN(C1CCC(=O)NC1=O)C2=O (stereo not drawn) [Compound 76] | > 100 nM | 
43 | CC(C)(C)C(=O)OCOC(=O)c1ccccc1C#CC(=O)NCc1ccc2c(c1)CN(C1CCC(=O)NC1=O)C2=O (stereo not drawn) [Compound 77] | > 100 nM | 

Second part, led by results:

Row | IC50 [1] | SMILES | IC50 (MV4-11, 72 h)
44 | < 1 nM | O=C(C#Cc1ccc(Cl)cc1F)NCc1ccc2c(c1)CN(C1CCC(=O)NC1=O)C2=O (stereo not drawn) [Compound 4] | 
45 | < 1 nM | O=C(C#Cc1cccs1)NCc1ccc2c(c1)CN(C1CCC(=O)NC1=O)C2=O (stereo not drawn) [Compound 6] | 
46 | < 1 nM | O=C(C#Cc1ccc(Cl)cc1)NCc1ccc2c(c1)CN(C1CCC(=O)NC1=O)C2=O (stereo not drawn) [Compound 7] | 
47 | < 1 nM | O=C(C#Cc1ccccc1Cl)NCc1ccc2c(c1)CN(C1CCC(=O)NC1=O)C2=O (stereo not drawn) [Compound 8] | 
48 | < 1 nM | O=C(C#Cc1ccc(F)cc1F)NCc1ccc2c(c1)CN(C1CCC(=O)NC1=O)C2=O (stereo not drawn) [Compound 10] | 
49 | 10 to 100 nM | O=C(C#Cc1cccnc1)NCc1ccc2c(c1)CN(C1CCC(=O)NC1=O)C2=O (stereo not drawn) [Compound 16] | 
50 | > 100 nM | O=C(C#Cc1ccncc1)NCc1ccc2c(c1)CN(C1CCC(=O)NC1=O)C2=O (stereo not drawn) [Compound 23] | 
51 | 1 to 10 nM | O=C(C#Cc1ccc(Cl)cn1)NCc1ccc2c(c1)CN(C1CCC(=O)NC1=O)C2=O (stereo not drawn) [Compound 27] | 
52 | 1 to 10 nM | Cc1ccc(C#CC(=O)NCc2ccc3c(c2)CN(C2CCC(=O)NC2=O)C3=O)nc1 (stereo not drawn) [Compound 28] | 
53 | > 100 nM | CCOC(=O)c1ccc(C#CC(=O)NCc2ccc3c(c2)CN(C2CCC(=O)NC2=O)C3=O)nc1 (stereo not drawn) [Compound 29] | 
54 | 1 to 10 nM | COc1ccc(C#CC(=O)NCc2ccc3c(c2)CN(C2CCC(=O)NC2=O)C3=O)nc1 (stereo not drawn) [Compound 30] | 
55 | 10 to 100 nM | Cc1ccc(C#CC(=O)NCc2ccc3c(c2)CN(C2CCC(=O)NC2=O)C3=O)cn1 (stereo not drawn) [Compound 31] | 
56 | > 100 nM | Cn1cnc(C#CC(=O)NCc2ccc3c(c2)CN(C2CCC(=O)NC2=O)C3=O)c1 (stereo not drawn) [Compound 33] | 
57 | 10 to 100 nM | O=C(C#Cc1ccc(C(F)(F)F)cn1)NCc1ccc2c(c1)CN(C1CCC(=O)NC1=O)C2=O (stereo not drawn) [Compound 34] | 
58 | 10 to 100 nM | Cn1ccc(C#CC(=O)NCc2ccc3c(c2)CN(C2CCC(=O)NC2=O)C3=O)n1 (stereo not drawn) [Compound 35] | 
59 | < 1 nM | Cc1ccc(C#CC(=O)NCc2ccc3c(c2)CN(C2CCC(=O)NC2=O)C3=O)s1 (stereo not drawn) [Compound 36] | 
60 | > 100 nM | O=C(C#Cc1cnccn1)NCc1ccc2c(c1)CN(C1CCC(=O)NC1=O)C2=O (stereo not drawn) [Compound 37] | 
61 | 1 to 10 nM | O=C(C#Cc1ccc(F)nc1)NCc1ccc2c(c1)CN(C1CCC(=O)NC1=O)C2=O (stereo not drawn) [Compound 38] | 
62 | 1 to 10 nM | O=C(C#Cc1cnc(Cl)cc1Cl)NCc1ccc2c(c1)CN(C1CCC(=O)NC1=O)C2=O (stereo not drawn) [Compound 39] | 
63 | 1 to 10 nM | O=C(C#Cc1cccc(Cl)n1)NCc1ccc2c(c1)CN(C1CCC(=O)NC1=O)C2=O (stereo not drawn) [Compound 40] | 
64 | > 100 nM | N#Cc1ccc(C#CC(=O)NCc2ccc3c(c2)CN(C2CCC(=O)NC2=O)C3=O)cn1 (stereo not drawn) [Compound 42] | 
65 | > 100 nM | N#Cc1ncccc1C#CC(=O)NCc1ccc2c(c1)CN(C1CCC(=O)NC1=O)C2=O (stereo not drawn) [Compound 43] | 
66 | 1 to 10 nM | Nc1ccc(C#CC(=O)NCc2ccc3c(c2)CN(C2CCC(=O)NC2=O)C3=O)c(F)c1 (stereo not drawn) [Compound 48] | 
67 | < 1 nM | Nc1cc(C#CC(=O)NCc2ccc3c(c2)CN(C2CCC(=O)NC2=O)C3=O)ccc1F (stereo not drawn) [Compound 54] | 
68 | 10 to 100 nM | O=C(C#Cc1ccc(Cl)nc1)NCc1ccc2c(c1)CN(C1CCC(=O)NC1=O)C2=O (stereo not drawn) [Compound 59] | 
69 | 1 to 10 nM | O=C(C#Cc1c(O)cccc1Cl)NCc1ccc2c(c1)CN(C1CCC(=O)NC1=O)C2=O (stereo not drawn) [Compound 65] | 
70 | 1 to 10 nM | O=C(C#Cc1c(Cl)ccnc1Cl)NCc1ccc2c(c1)CN(C1CCC(=O)NC1=O)C2=O (stereo not drawn) [Compound 66] | 
71 | 1 to 10 nM | Cc1ccnc(Cl)c1C#CC(=O)NCc1ccc2c(c1)CN(C1CCC(=O)NC1=O)C2=O (stereo not drawn) [Compound 67] | 
72 | 10 to 100 nM | O=C(C#Cc1c(F)ccnc1F)NCc1ccc2c(c1)CN(C1CCC(=O)NC1=O)C2=O (stereo not drawn) [Compound 68] | 
